Measured values from patent US8168639B2, “Heterotricyclic compounds as serotonergic and/or dopaminergic agents and uses thereof” (ATIR Holding S.A., priority 2006, dated 2012).

Key:
[1] = biological target: T1, Human recombinant serotonin 5-HT1A receptors expressed in CHO cells (Homo sapiens, UniProt P08908); assay: [35S]GTPγS 5-HT1A activity assay; assay type: biochemical; details: 10 μM compound; [35S]GTPγS binding increase relative to serotonin
T1 construct: expressed in transfected cells; host or cells: CHO cells
T1 sequence (P08908 1-422): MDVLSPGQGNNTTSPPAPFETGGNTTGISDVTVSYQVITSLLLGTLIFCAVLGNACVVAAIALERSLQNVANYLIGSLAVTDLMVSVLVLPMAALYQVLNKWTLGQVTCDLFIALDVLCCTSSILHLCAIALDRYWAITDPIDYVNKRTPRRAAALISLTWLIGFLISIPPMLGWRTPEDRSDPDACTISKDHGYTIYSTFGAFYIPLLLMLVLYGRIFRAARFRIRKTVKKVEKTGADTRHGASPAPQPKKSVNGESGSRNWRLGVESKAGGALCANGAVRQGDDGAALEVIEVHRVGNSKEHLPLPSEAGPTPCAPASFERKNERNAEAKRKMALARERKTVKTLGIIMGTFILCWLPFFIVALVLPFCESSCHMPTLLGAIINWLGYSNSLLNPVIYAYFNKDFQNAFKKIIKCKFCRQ
Description: Human recombinant serotonin 5-HT1A receptors expressed in CHO cells were used. The tested compound were incubated with cell membranes and [^35S]GTPγS for 30 minutes in modified HEPES buffer (pH=7.4). Test compound-induced increase of [^35S]GTPγS binding was quantified relative to serotonin-induced increase of [^35S]GTPγS. Compounds were tested at concentrations of 10, 1 and 0.1 μM.

[2] = biological target: T2, 5-HT1A type serotonin receptor (human recombinant, HEK-293 cells) (Homo sapiens, UniProt P08908); assay: Competitive binding to 5-HT1A receptor, [3H]-8-OH-DPAT radioligand; details: [3H]-8-OH-DPAT 0.5 nM; for 5HT1A receptor Binding % at 1 nM: 1 nM compound; for 5HT1A receptor Binding % at 10 nM: 10 nM compound; for 5HT1A receptor Binding % at 100 nM: 100 nM compound; for 5HT1A receptor Binding % at 1 μM: 1 μM compound; for 5HT1A receptor Binding % at 5 μM: 5 μM compound
T2 construct: expressed in transfected cells; host or cells: HEK-293 cells
T2 sequence (P08908 1-422): T1 sequence (P08908 1-422)
Description: Compounds were assayed for competitive binding to the 5-HT1A type serotonin receptor. The receptor is expressed as human recombinant proteins in HEK-293 cells, as described, for example, in Hoyer et al. (1985) and Schoeffter and Hoyer (1989).
Determination of binding to 5-HT1A receptor was performed using [^3H]-8-OH-DPAT, a 5-HT1A receptor ligand (Hoyer et al., 1985), as a radioligand (221 Ci/mmol, 0.5 nM) in the presence of various concentrations of the tested compound. Reactions were carried out in 50 mM Tris-HCl (pH 7.4) containing 10 mM MgSO4, 0.5 mM EDTA, and 0.1% ascorbic acid for 60 minutes at 25° C. The reaction was terminated by rapid vacuum filtration onto glass fiber filters. Radioactivity trapped onto the filters was determined (counted) and compared to control values in order to accurately evaluate any interaction of the test compound(s) with the cloned 5-HT1A receptor binding site.

[3] = biological target: T3, D4.4 type dopamine receptor (human recombinant, CHO cells) (Homo sapiens, UniProt P21917); assay: Competitive binding to D4.4 dopamine receptor, [3H]-YM-09151-2 radioligand; details: [3H]-YM-09151-2 0.3 nM; for D4.4(h) receptor Competitive Binding, % at 100 nM: 100 nM compound; for D4.4(h) receptor Competitive Binding, % at 1 μM: 1 μM compound
T3 construct: expressed in transfected cells; host or cells: CHO cells
T3 sequence (P21917 1-419): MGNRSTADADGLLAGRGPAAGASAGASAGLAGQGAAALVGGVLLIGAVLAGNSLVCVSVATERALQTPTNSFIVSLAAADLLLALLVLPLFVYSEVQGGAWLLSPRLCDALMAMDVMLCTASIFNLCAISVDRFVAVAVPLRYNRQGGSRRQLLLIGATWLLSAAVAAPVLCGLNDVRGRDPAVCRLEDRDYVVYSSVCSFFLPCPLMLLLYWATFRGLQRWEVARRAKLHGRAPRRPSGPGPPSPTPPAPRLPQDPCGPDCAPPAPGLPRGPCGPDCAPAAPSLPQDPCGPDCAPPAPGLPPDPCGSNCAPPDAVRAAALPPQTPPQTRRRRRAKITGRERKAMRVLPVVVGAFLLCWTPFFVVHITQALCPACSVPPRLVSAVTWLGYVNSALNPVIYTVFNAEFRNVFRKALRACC
Description: Compounds were assayed for competitive binding to the D4.4 type dopamine receptors, which is expressed as human recombinant proteins in CHO cells, as described, for example, in Jarvis et al. (1973); Van Tol et al. (1991) and Van Tol et al. (1992).
Determination of binding to D4.4 receptor was performed using [^3H]-YM-09151-2 (70-87 Ci/mmol, 0.3 nM), as a radioligand, in with the presence of various concentrations of the tested compound. Reactions were carried out in 50 mM TRIS-HCl (pH 7.4) containing 5 mM MgCl2, 5 mM EDTA, 5 mM KCl and 1.5 mM CaCl2, for 60 minutes at 22° C. The reaction was terminated by rapid vacuum filtration onto glass fiber filters. Radioactivity trapped onto the filters was determined (counted) and compared to control values in order to accurately evaluate any interaction of the tested compound(s) with the cloned dopamine D4.4 binding site.

[4] = system: Male ferrets (Mustela putorius furo); assay: Ferret emesis model; assay type: in vivo, ferret (Mustela putorius furo); details: 0.3 μmol/kg subcutaneous, observed 90 minutes
Description: Male ferrets (Mustela putorius furo) were made to fast overnight before experiments. 18 animals (weighing 0.8-1.0 kg) were divided into the following three groups of six:
(1) test group—received the compound being tested, e dissolved in 1 ml saline at a dose of 0.3 μmol/kg body weight, administered subcutaneously;
(2) negative control—received saline; and
(3) positive control—received apomorphine.
Animals were placed individually in observation cages and received cat food 30 minutes before the experiment.
One ml of saline was administered subcutaneously. Apomorphine and the test compound were dissolved in 1 ml saline at a dose of 0.3 μmol/kg body weight. Induced emesis or nausea was determined by direct observation during 90 minutes following drug injection. Nausea was characterized by behavior such as licking, gagging, backing, head burying and intense abdominal grooming. Emesis was characterized by rhythmic abdominal contractions.

[5] = system: Sprague Dawley rats; assay: Penile erection test in rats; assay type: in vivo, rat; details: 0.3 µmol/kg, subcutaneous; for Percent of animals showing erection response: moderate to strong erection
Description: Penile erection was tested in Sprague Dawley rats. The experimental group included 50 adult male rats, with body weights in the range of 312-330 grams. The animals were housed for acclimatization in a cage, and water and food were supplied ad libitum.
Penile erection experiments were carried out in morning hours between 9 AM and 11 AM, in a dark room with a red light source. Control groups included 10 animals that received saline as a placebo, and 10 animals that received 0.3 μmol/kg body weight of apomorphine hydrochloride in 1 ml of saline, as a positive control. […]
Penile erection was tested in Sprague Dawley rats, according to the protocol described hereinabove.

Oc1cccc(N2CCN(Cc3cc4c(cn3)[nH]c3ccccc34)CC2)c1 [Compound B-96]
% activation of 5HT1A at 10 μM [1]: active
5HT1A receptor Binding % at 1 nM [2]: active
5HT1A receptor Binding % at 10 nM [2]: active
5HT1A receptor Binding % at 100 nM [2]: active
5HT1A receptor Binding % at 1 μM [2]: active
5HT1A receptor Binding % at 5 μM [2]: active
D4.4(h) receptor Competitive Binding, % at 100 nM [3]: 87.6%
D4.4(h) receptor Competitive Binding, % at 1 μM [3]: 102.45%

COc1ccccc1N1CCN(Cc2cc3c(cn2)[nH]c2ccccc23)CC1 [Compound B-99]
% activation of 5HT1A at 10 μM [1]: active
5HT1A receptor Binding % at 1 nM [2]: active
5HT1A receptor Binding % at 10 nM [2]: active
5HT1A receptor Binding % at 100 nM [2]: active
5HT1A receptor Binding % at 1 μM [2]: active
5HT1A receptor Binding % at 5 μM [2]: active
Number of ferrets showing signs of nausea and/or emesis [4]: none
D4.4(h) receptor Competitive Binding, % at 100 nM [3]: 97.43%
D4.4(h) receptor Competitive Binding, % at 1 μM [3]: 102.4%
Number of animals showing moderate to strong erection [5]: 26 of the 30 animals
Time during which erection was shown [5]: 45 to 70 min
Percent of animals showing erection response [5]: 87%

CCOc1ccccc1N1CCN(Cc2nc3sc4c(c3c(=O)[nH]2)CCCC4)CC1 [Compound B-94]
% activation of 5HT1A at 10 μM [1]: 50%
5HT1A receptor Binding % at 1 nM [2]: 0.9%
5HT1A receptor Binding % at 10 nM [2]: 20.23%
5HT1A receptor Binding % at 100 nM [2]: 44.56%
5HT1A receptor Binding % at 1 μM [2]: 62.77%
5HT1A receptor Binding % at 5 μM [2]: 97.67%
D4.4(h) receptor Competitive Binding, % at 100 nM [3]: 19.14%
D4.4(h) receptor Competitive Binding, % at 1 μM [3]: 89.02%

CN1CCc2cccc3c2[C@H]1Cc1ccc(O)c(O)c1-3 [apomorphine, reference compound]
Number of ferrets showing signs of nausea and/or emesis [4]: 4 of the 6 ferrets
Time during which erection was shown [5]: 15 to 25 min
Percent of animals showing erection response [5]: 70%

O=c1[nH]c(CN2CCC(c3ccccc3)CC2)nc2sc3c(c12)CCCC3 [Compound B-93]
% activation of 5HT1A at 10 μM [1]: active
5HT1A receptor Binding % at 1 nM [2]: active
5HT1A receptor Binding % at 10 nM [2]: active
5HT1A receptor Binding % at 100 nM [2]: active
5HT1A receptor Binding % at 1 μM [2]: active
5HT1A receptor Binding % at 5 μM [2]: active
D4.4(h) receptor Competitive Binding, % at 100 nM [3]: 16.69%
D4.4(h) receptor Competitive Binding, % at 1 μM [3]: 81.97%

CCOc1ccccc1N1CCN(Cc2cc3c(cn2)[nH]c2ccccc23)CC1 [Compound B-97]
% activation of 5HT1A at 10 μM [1]: 48%
5HT1A receptor Binding % at 1 nM [2]: 1.78%
5HT1A receptor Binding % at 10 nM [2]: 37.48%
5HT1A receptor Binding % at 100 nM [2]: 75.08%
5HT1A receptor Binding % at 1 μM [2]: 99.45%
5HT1A receptor Binding % at 5 μM [2]: 100.34%
D4.4(h) receptor Competitive Binding, % at 100 nM [3]: 74.27%
D4.4(h) receptor Competitive Binding, % at 1 μM [3]: 100.99%

O=c1[nH]c(CN2CCN(c3cccc(O)c3)CC2)nc2sc3c(c12)CCCC3 [Compound B-95]
% activation of 5HT1A at 10 μM [1]: active
5HT1A receptor Binding % at 1 nM [2]: active
5HT1A receptor Binding % at 10 nM [2]: active
5HT1A receptor Binding % at 100 nM [2]: active
5HT1A receptor Binding % at 1 μM [2]: active
5HT1A receptor Binding % at 5 μM [2]: active
D4.4(h) receptor Competitive Binding, % at 100 nM [3]: 32.26%
D4.4(h) receptor Competitive Binding, % at 1 μM [3]: 86.68%
